Laboratory results published in patent US20190216726A1, “Particles, Compositions and Methods for Ophthalmic and/or Other Applications” (priority 2016, published 2019).

Tests used:
Format in all cases: physicochemical
[1] = HPLC chemical purity of milled suspensions (stability to milling)
Experimental: (§1) A milling procedure was employed in which aqueous dispersions containing coarse compound particles were individually milled with F127 at near-neutral pH buffer using a grinding medium. Briefly, a slurry containing 5% of compound and 5% F127 in PBS (0.0067 M PO4^3−), pH 7.1 was added to an equal bulk volume of 1-mm ceria-stabilized zirconium oxide beads in a glass vial (e.g., 2 mL of slurry per 2 mL of beads). A magnetic stir bar was used to agitate the beads, stirring at approximately 500 rpm at ambient conditions for 25 hours.
The HPLC method used to determine the purity of milled suspensions is as follows: column—SunFire™ C18, 3.5 μm, 3.0×150 mm, column temperature—40° C., flow rate—0.7 mL/min, detection wavelength—254 nm, flow gradient—50:50 (0 minutes) to 0:100 (10 minutes) 0.1% phosphoric acid/H2O:acetonitrile.

[2] = DLS particle size and PDI of hydrocortisone derivatives milled with Pluronic F127 (Examples 8, 9); settings: for PDI of milled suspension / Size (Z-averaged) of milled suspension: 5% compound, 5% F127 in PBS pH 7.1, milled 25 hours; for Milled suspension PDI / Milled suspension Size (Z-average): final form B
Experimental: as §1
The milled suspensions were subjected to dynamic light scattering (DLS) measurements to determine particle size and polydispersity index (PDI, a measure of the width of the particle size distribution). The samples for DLS measurements were buffered with HyClone™ PBS (Phosphate-Buffered Saline) to produce isotonic samples that have a physiologically relevant pH.
Form 3-B was wet-milled using the same method that generated the data in Tables 13 and 14.

[3] = XRPD crystal form before and after milling; settings: milled with F127
From the text: Particles were isolated by centrifugation, then resuspended in H2O and then recentrifuged. The wet sample was resuspended in H2O and deposited thinly and evenly onto a flat zero background sample holder (Rigaku 906165). The sample was allowed to air dry.
Milligram amounts were packed as an evenly thin layer of solid onto a zero background sample holder (Rigaku 906165).
XRPD patterns were obtained using a Rigaku MiniFlex 600 benchtop x-ray diffractometer equipped with a Cu X-ray tube (Cu/Kα=1.54059 Å), a six-position sample changer and a D/teX Ultra detector. […] Diffraction patterns were viewed and analyzed using PDXL analysis software provided by the instrument manufacturer. A reference standard silicon powder (NIST Standard Reference Material 640d) generated a peak at 28.43° and 28.45° two theta when samples were prepared as suspension in H2O (to simulate Procedure A) and Procedure B, respectively.
Except for Crystalline Form 1-B, the XRPD samples of all other forms were prepared using Procedure A (milled compounds) or Procedure B (neat compounds). […] was used to prepare the XRPD sample of Crystalline Form 1-B.
All input crystalline forms were arbitrarily designated as “A” forms. New forms that emerged after milling, if any, were sequentially designated as “B”, “C”, etc. An “A” form was not designated for Compound 2 since the input material was amorphous.

[4] = DLS particle size and PDI of drugs milled with F127 or SDS (Example 6)
From the text: The technique described in Example 1 was applied to other non-polymeric solid particles to show the versatility of the approach. […] Table 12 lists the particle sizes for a representative selection of drugs that were milled using this method.

[5] = drug milled with stabilizer F127
[6] = drug milled with stabilizer SDS

Structure (SMILES) | PDI [4, 5] | Z-Ave D [4, 5] | PDI [4, 6] | Z-Ave D [4, 6] | Purity after milling ([1]; after milling with F127) | Size (Z-averaged) of milled suspension [2] | Crystal form change after milling of Input forms? [3] | other results
C[C@]12CCC(=O)C=C1CC[C@@H]1[C@@H]2[C@@H](O)C[C@@]2(C)[C@H]1CC[C@]2(OC(=O)CCS(=O)(=O)c1ccccc1)C(=O)CO [Compound 1, (10R,11S,13S,17R)-11-hydroxy-17-(2-hydroxyacetyl)-10,13-dimethyl-3-oxo-2,3,6,7,8,9,10,11,12,13,14,15,16,17-tetradecahydro-1H-cyclopenta[a]phenanthren-17-yl 3-(phenylsulfonyl)propanoate] | – | – | – | – | <90% | 509 nm | Yes | Purity after milling ([1]; after milling with F127, listed as 7): < 90%; PDI of milled suspension [2]: 0.318
C[C@]12CCC(=O)C=C1CC[C@@H]1[C@@H]2[C@@H](O)C[C@@]2(C)[C@H]1CC[C@]2(OC(=O)c1ccco1)C(=O)CO [Compound 2, (10R,11S,13S,17R)-11-hydroxy-17-(2-hydroxyacetyl)-10,13-dimethyl-3-oxo-2,3,6,7,8,9,10,11,12,13,14,15,16,17-tetradecahydro-1H-cyclopenta[a]phenanthren-17-yl furan-2-carboxylate] | – | – | – | – | >96% | 238 nm | No | –
C[C@]12CCC(=O)C=C1CC[C@@H]1[C@@H]2[C@@H](O)C[C@@]2(C)[C@H]1CC[C@]2(OC(=O)Cc1ccc(Br)cc1)C(=O)CO [Compound 3, (10R,11S,13S,17R)-11-hydroxy-17-(2-hydroxyacetyl)-10,13-dimethyl-3-oxo-2,3,6,7,8,9,10,11,12,13,14,15,16,17-tetradecahydro-1H-cyclopenta[a]phenanthren-17-yl 2-(4-bromophenyl)acetate] | – | – | – | – | >96% | 341 nm | Yes | PDI of milled suspension [2]: 0.197; Milled suspension PDI ([2]; input form A): 0.197; Milled suspension Size (Z-average) ([2]; input form A): 341 nm; Milled suspension PDI ([2]; input form B): 0.154; Milled suspension Size (Z-average) ([2]; input form B): 262 nm
NS(=O)(=O)c1cc(C(=O)O)c(NCc2ccco2)cc1Cl [Furosemide] | 0.119 | 217 nm | 0.146 | 200 nm | – | – | – | –
COc1ccc2c(c1)c(CC(=O)O)c(C)n2C(=O)c1ccc(Cl)cc1 [Indomethacin] | 0.123 | 225 nm | 0.154 | 216 nm | – | – | – | –

Second part, led by results:

PDI [4, 5] | Z-Ave D [4, 5] | PDI [4, 6] | Z-Ave D [4, 6] | Structure (SMILES) | Purity after milling ([1]; after milling with F127) | Size (Z-averaged) of milled suspension [2] | Crystal form change after milling of Input forms? [3] | other results
0.114 | 203 nm | 0.193 | 202 nm | CCC(=O)O[C@]1(C(=O)SCF)[C@H](C)C[C@H]2[C@@H]3C[C@H](F)C4=CC(=O)C=C[C@]4(C)[C@@]3(F)[C@@H](O)C[C@@]21C [Fluticasone propionate] | – | – | – | –
0.123 | 241 nm | 0.130 | 241 nm | CCOC(=O)O[C@]1(C(=O)OCCl)CC[C@H]2[C@@H]3CCC4=CC(=O)C=C[C@]4(C)[C@H]3[C@@H](O)C[C@@]21C [Loteprednol etabonate] | – | – | – | –
0.090 | 273 nm | 0.120 | 245 nm | C[C@]12C=CC(=O)C=C1CC[C@@H]1[C@@H]2[C@@H](O)C[C@@]2(C)[C@H]1CC[C@]2(O)C(=O)CO [Prednisolone] | – | – | – | –
